Results: patent publication US20240083872A1, “CYCLIC AMINE DERIVATIVES HAVING SEROTONIN RECEPTOR BINDING ACTIVITY” (Shionogi & Co., Ltd., priority 2020, published 2024)
Like-named read-outs stand apart in the source and are kept apart here.

What was measured:
[1] = target: human recombinant 5-HT2C receptor (Homo sapiens (Human), UniProt P28335); assay: 5-HT2C receptor binding inhibition test ([3H]-Mesulergine); conditions: Jump-In HEK cell membrane, [3H]-Mesulergine
Protocol: (§1) (Each Experimental Condition)
Cell membrane: Jump-In HEK cell membrane (expressing human recombinant 5-HT2C receptor)
(§2) Assay buffer: Tris-HCl 50 mmol/L (pH 7.4) containing NaCl 120 mmol/L, MgCl2.6H2O 1 mmol/L, KCl 5 mmol/L, 0.1% BSA, and CaCl2 2 mmol/L
Radioactive ligand: [^3H]-Mesulergine around Kd value calculated by the following method
(§3) Non-specific ligand: Serotonin HCl
The Kd value was calculated when the lot of cell membrane was changed. In advance, 0.5 μL of a 1 mmol/L compound for non-specific binding calculation dissolved in DMSO or DMSO was dispensed into a microplate, and the cell membrane was diluted with an Assay buffer. The radioactive ligand solution was serially diluted and the count was confirmed with a liquid scintillator. Assay buffer containing diluted cell membrane was dispensed into a microplate at 50 μL/well. Then, the radioactive ligand solution was dispensed into a microplate at 50 μL/well, and the plate was sealed. It was allowed to stand at room temperature (25° C.) for 1.5 hours. During this period, 50 mmol/L Tris-HCl (pH 7.4) was dispensed into a GF/B UniFilter plate at 50 μL/well and allowed to stand at […] for 1 hour or longer. After that, filtration was performed with Cell harvester (PerkinElmer). The radioactive ligand solution was dispensed into an empty well of the GF/B UniFilter plate at 10 μL/well. After the GF/B UniFilter plate was dried at room temperature, MicroScinti 20 was dispensed into the GF/B UniFilter plate at 50 μL/well, and the plate was sealed. The GF/B UniFilter plate was allowed to stand overnight at room temperature. […] The Saturation curve was drawn from the measured value, and the Kd value was calculated from the slope of the Scatchard Plot.
(§4) (Binding Test of the Compound According to the Present Invention)
In advance, 0.5 μL of the compound solution dissolved in DMSO was dispensed into a microplate, and the cell membrane and the hot ligand were diluted with Assay buffer, respectively. Then, the Assay buffer containing the diluted cell membrane was dispensed into a microplate at 50 μL/well. Then, the radioactive ligand solution was dispensed into a microplate at 50 μL/well, and the plate was sealed. Then, it was allowed to stand at 37° C. for 2 hours. During this period, 50 mmol/L Tris-HCl (pH 7.4) was dispensed into a GF/B UniFilter plate at 50 μL/well and allowed to stand at 4° C. for 1 hour or longer. After that, filtration was performed with Cell harvester (PerkinElmer). After the GF/B UniFilter plate was dried at room temperature, MicroScinti 20 was dispensed into the GF/B UniFilter plate at 50 μL/well, and the plate was sealed. The GF/B UniFilter plate was allowed to stand overnight at room temperature. […] The non-specific binding was calculated from the radioactivity of [^3H]-Mesulergine in the presence of […] Serotonin HCl with the unlabeled ligand, and the total binding was calculated from the radioactivity of [^3H]-Mesulergine in the absence of the compound according to the present invention (Vehicle). Finally, the Ki value was calculated from the dose-response curve.
(§5) (The binding activity of the compound according to the present invention was calculated from the following binding inhibition rate (%).)
(§6) Inhibition rate (%)=[1−(c−a)/(b−a)]×100 • a; mean cpm of non-specific binding • b; mean cpm of total binding • c; cpm in the presence of the test compound

[2] = target: human recombinant 5-HT2A receptor (Homo sapiens (Human), UniProt P28223); assay: 5-HT2A receptor binding inhibition test ([3H]-Ketanserin); conditions: Jump-In HEK cell membrane
Sequence of human recombinant 5-HT2A receptor (P28223 whole entry): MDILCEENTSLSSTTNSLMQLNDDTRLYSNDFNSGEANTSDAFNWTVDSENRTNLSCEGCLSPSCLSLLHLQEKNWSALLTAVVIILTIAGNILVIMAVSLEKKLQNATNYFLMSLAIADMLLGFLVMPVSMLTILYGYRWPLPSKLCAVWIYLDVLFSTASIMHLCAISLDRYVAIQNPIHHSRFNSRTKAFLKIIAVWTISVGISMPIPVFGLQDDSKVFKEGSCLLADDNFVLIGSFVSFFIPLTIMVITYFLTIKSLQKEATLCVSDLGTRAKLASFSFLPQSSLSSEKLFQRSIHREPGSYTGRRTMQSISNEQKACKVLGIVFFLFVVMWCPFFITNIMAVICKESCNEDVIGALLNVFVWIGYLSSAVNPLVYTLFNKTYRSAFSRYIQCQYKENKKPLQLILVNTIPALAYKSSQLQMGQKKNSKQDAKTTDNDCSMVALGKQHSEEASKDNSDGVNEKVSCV
Protocol: Test Example 1: 5-HT2A Receptor Binding Inhibition Test
as §1
Cell membrane: Jump-In HEK cell membrane (expressing human recombinant 5-HT2A receptor)
as §2
Radioactive ligand: [^3H]-Ketanserin around Kd value calculated by the following method
as §3
The Kd value was calculated when the lot of cell membrane was changed. In advance, 0.5 μL of a 1 mmol/L compound for non-specific binding calculation dissolved in DMSO or DMSO was dispensed into a microplate, and the cell membrane was diluted with an Assay buffer. The radioactive ligand solution was serially diluted and the count was confirmed with a liquid scintillator. Assay buffer containing diluted cell membrane was dispensed into a microplate at 50 μL/well. Then, the radioactive ligand solution was dispensed into a microplate at 50 μL/well, and the plate was sealed. It was allowed to stand at room temperature (25° C.) for 1.5 hours. During this period, 50 mmol/L Tris-HCl (pH 7.4) was dispensed into a GF/B UniFilter plate at 50 μL/well and allowed to stand at 4° C. for 1 hour or longer. After that, filtration was performed with Cell harvester (PerkinElmer). The radioactive ligand solution was dispensed into an empty well of the GF/B UniFilter plate at 10 μL/well. After the GF/B UniFilter plate was dried at room temperature, MicroScinti 20 was dispensed into the GF/B UniFilter plate at 50 μL/well, and the plate was sealed. The GF/B UniFilter plate was allowed to stand overnight at room temperature. The radioactivity of [^3H]-Ketanserin bound to the 5-HT2A receptor was measured using Microbeta2 (PerkinElmer) at a measurement time of 1 min/well. The Saturation curve was drawn from the measured value, and the Kd value was calculated from the slope of the Scatchard Plot.
as §4
In advance, 0.5 μL of the compound solution dissolved in DMSO was dispensed into a microplate, and the cell membrane and the hot ligand were diluted with Assay buffer, respectively. Then, the Assay buffer containing the diluted cell membrane was dispensed into a microplate at 50 μL/well. Then, the radioactive ligand solution was dispensed into a microplate at 50 μL/well, and the plate was sealed. Then, it was allowed to stand at room temperature (25° C.) for 1.5 hours. During this period, 50 mmol/L Tris-HCl (pH 7.4) was dispensed into a GF/B UniFilter plate at 50 μL/well and allowed to stand at 4° C. for 1 hour or longer. After that, filtration was performed with Cell harvester (PerkinElmer). After the GF/B UniFilter plate was dried at room temperature, MicroScinti 20 was dispensed into the GF/B UniFilter plate at 50 μL/well, and the plate was sealed. The GF/B UniFilter plate was allowed to stand overnight at room temperature. The radioactivity of [^3H]-Ketanserin bound to the 5-HT2A receptor was measured using Microbeta2 (PerkinElmer) at a measurement time of 1 min/well. The non-specific binding was calculated from the radioactivity of [^3H]-Ketanserin in the presence of […] Serotonin HCl with the unlabeled ligand, and the total binding was calculated from the radioactivity of [^3H]-Ketanserin in the absence of the compound according to the present invention (Vehicle). Finally, the Ki value was calculated from the dose-response curve.
as §5, §6

[3] = read-out: human serotonin 5-HT2C receptor binding inhibitory activity, Ki value
[4] = read-out: human serotonin 5-HT2A receptor binding activity, Ki value

Sequence of human recombinant 5-HT2C receptor (P28335 33-458): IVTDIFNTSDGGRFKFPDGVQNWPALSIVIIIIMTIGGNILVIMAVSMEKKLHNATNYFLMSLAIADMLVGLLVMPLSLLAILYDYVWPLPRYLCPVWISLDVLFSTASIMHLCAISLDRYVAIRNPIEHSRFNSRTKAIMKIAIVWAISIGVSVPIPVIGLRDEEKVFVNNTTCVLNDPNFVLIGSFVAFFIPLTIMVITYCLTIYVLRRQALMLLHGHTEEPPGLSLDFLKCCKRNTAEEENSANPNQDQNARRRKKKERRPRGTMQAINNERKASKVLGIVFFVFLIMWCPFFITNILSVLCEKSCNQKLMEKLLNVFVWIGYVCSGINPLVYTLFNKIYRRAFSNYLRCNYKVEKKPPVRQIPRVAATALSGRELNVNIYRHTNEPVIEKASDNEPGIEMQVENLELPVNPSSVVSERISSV

Ki ([1]; read-out: h-5-HT2C Ki) | Ki ([2]; read-out: h-5-HT2A Ki) | SMILES | Ki [1, 3] | Ki [2, 4]
10 to 100 nM | 10 to 100 nM | Cc1cc(CN(Cc2ccc(OCC(C)C)cc2)C(=O)NC2CCN(C)CC2)no1 [Compound I-039] |  | 
10 to 100 nM | < 10 nM | CC(C)COc1ccc(CN(Cc2ccn(C)c2)C(=O)NC2CCN(C)CC2)cc1 [Compound I-040] |  | 
10 to 100 nM | < 10 nM | Cc1cccnc1CN(Cc1ccc(OCC(C)C)cc1)C(=O)NC1CCN(C)CC1 [Compound I-023] |  | 
< 10 nM | < 10 nM | CCCOc1ccc(CN(Cc2ccc(F)cn2)C(=O)NC2CCN(C)CC2)cc1 [Compound I-021] |  | 
< 10 nM | < 10 nM | CC(C)COc1ccc(CN(Cc2ccn(C)n2)C(=O)N[C@H]2CCN(C)C[C@H]2F)cc1 [Compound I-049] |  | 
 | 10 to 100 nM | CC(C)COc1ccc(CN(Cc2ccncc2)C(=O)NC2CCN(C)CC2)cc1 [Compound I-052] |  | 
< 10 nM | < 10 nM | Cc1ccc(CN(Cc2ccc(OCC(C)C)cc2)C(=O)NC2CCN(C)CC2)s1 [Compound I-008] |  | 
100 to 5000 nM | < 10 nM | CC(C)COc1ccc(CN(Cc2cccn2C)C(=O)NC2CCN(C)CC2)cc1 [Compound I-009] |  | 
10 to 100 nM | < 10 nM | CC(C)COc1ccc(CN(Cc2cccs2)C(=O)NC2CCN(C)CC2)cc1 [Compound I-034] |  | 
10 to 100 nM | < 10 nM | CC(C)COc1ccc(CN(Cc2ccc(F)cn2)C(=O)OC2CCN(C)CC2)cc1 [Compound I-093] |  | 
< 10 nM | < 10 nM | CC(C)COc1ccc(CN(Cc2ccco2)C(=O)NC2CCN(C)CC2)cc1 [Compound I-024] |  | 
10 to 100 nM | 10 to 100 nM | CC(C)COc1ccc(CN(Cc2cnn(C)c2)C(=O)NC2CCN(C)CC2)cc1 [Compound I-060] |  | 
10 to 100 nM | < 10 nM | Cc1cc(CN(Cc2ccc(OCC(C)C)cc2)C(=O)NC2CCN(C)CC2)nn1C [Compound I-005] |  | 
10 to 100 nM | 10 to 100 nM | CC(C)COc1ccc(CN(Cc2nn(C)cc2Cl)C(=O)NC2CCN(C)CC2)cc1 [Compound I-041] |  | 
 | 100 to 5000 nM | CC(C)COc1ccc(CN(Cc2ccnn2C)C(=O)NC2CCN(C)CC2)cc1 [Compound I-053] |  | 
 | 100 to 5000 nM | CC(C)COc1ccc(CN(Cc2cccnc2)C(=O)NC2CCN(C)CC2)cc1 [Compound I-057] |  | 
 | 10 to 100 nM | CC(C)COc1ccc(CN(Cc2cc(-c3ccccc3)n(C)n2)C(=O)NC2CCN(C)CC2)cc1 [Compound I-055] |  | 
 | 10 to 100 nM | CC(C)COc1ccc(CN(Cc2cc(C(F)(F)F)ccn2)C(=O)NC2CCN(C)CC2)cc1 [Compound I-056] |  | 

Continued, compound first:

SMILES | Ki ([1]; read-out: h-5-HT2C Ki) | Ki ([2]; read-out: h-5-HT2A Ki) | Ki [1, 3] | Ki [2, 4]
CCCCOc1ccc(CN(Cc2cnn(C)n2)C(=O)NC2CCN(C)CC2)cc1F [Compound I-100] | < 10 nM | < 10 nM |  | 
CC(C)COc1ccc(CN(Cc2ccc(F)cn2)C(=O)N[C@H]2CCNC[C@H]2F)cc1 (single isomer, unassigned) [Compound I-006] |  |  | 2.47 nM | 0.968 nM
CNC(=O)CN1CCC(NC(=O)N(Cc2ccc(OCC(C)C)cc2)Cc2ccn(C)n2)CC1 [Compound I-072] |  | 100 to 5000 nM |  | 
CC(C)COc1ccc(CN(Cc2ccn(C)n2)C(=O)NC2CC3CC2CN3C)cc1 (stereo not drawn) [Compound I-061] | 10 to 100 nM | < 10 nM |  | 
COc1ccc(CN(Cc2ccn(C)n2)C(=O)NC2CCN(C)CC2)cc1F [Compound I-014] | 10 to 100 nM | < 10 nM |  | 
CCCCOc1ccc(CN(Cc2coc(C3CC3)n2)C(=O)NC2CCN(C)CC2)cc1 [Compound I-110] |  |  | 0.301 nM | 0.537 nM
CC(C)COc1ccc(CN(Cc2ccn(C)n2)C(=O)N[C@H]2CCN(C)CC23CC3)cc1 [Compound I-037] |  |  | 2.11 nM | 4.7 nM
CN1CCC(NC(=O)N(Cc2ccc(OC(F)(F)F)cc2)Cc2ccn(C)n2)CC1 [Compound I-046] |  |  | 14.5 nM | 3.09 nM
CC(C)COc1ccc(CN(Cc2ccn(C)n2)C(=O)CN2CCN(C)CC2)cc1 [Compound I-036] | 100 to 5000 nM | 10 to 100 nM |  | 
CC(C)COc1ccc(CN(Cc2cc3ccccc3o2)C(=O)NC2CCN(C)CC2)cc1 [Compound I-033] |  |  | 28.9 nM | 4.01 nM
CN1CCC(NC(=O)N(Cc2ccc3c(c2)CCO3)Cc2ccn(C)n2)CC1 [Compound I-015] |  |  |  | 45.5 nM
CN1CCC(NC(=O)N(Cc2ccc3c(c2)OCO3)Cc2ccn(C)n2)CC1 [Compound I-026] | 100 to 5000 nM | 10 to 100 nM |  | 
CCCCOc1ccc(CN(Cc2coc(C)n2)C(=O)CN2CCN(C)CC2)cc1F [Compound I-126] |  |  | 6.25 nM | 1.24 nM
CCCc1ccc(CN(Cc2coc(C)n2)C(=O)NC2CCN(C)CC2)cc1 [Compound I-108] | < 10 nM | < 10 nM |  | 
CC(C)COc1ccc(CN(Cc2ccn(C)n2)C(=O)N[C@@H]2C[C@H]3CCC[C@@H](C2)N3C)cc1 [Compound I-074] |  | < 10 nM |  | 
CCCCOc1ccc(CN(Cc2coc(C)n2)C(=O)NC2CCN(C)CC2)c(F)c1 [Compound I-113] | < 10 nM | < 10 nM |  | 
Cc1nc(CN(Cc2ccc(OCC(C)C)c(F)c2)C(=O)NC2CCN(C)CC2)co1 [Compound I-115] | < 10 nM | < 10 nM |  | 
CC(C)COc1ccc(CN(Cc2ccn(C)n2)C(=O)N[C@@H]2C[C@H]3CC[C@@H](C2)N3C)cc1 [Compound I-062] |  | 10 to 100 nM |  | 
CC(C)COc1ccc(CN(Cc2ccn(C)n2)C(=O)NC2CCN(C)C2)cc1 (racemic) [Compound I-054] |  | < 10 nM |  | 
CC(C)COc1ccc(CN(Cc2ccn(C)n2)C(=O)NC2CCN(C3COC3)CC2)cc1 [Compound I-071] |  | 100 to 5000 nM |  | 
CC(C)COc1ccc(CN(Cc2ccn(C)n2)C(=O)N[C@H]2C[C@H]3CCC[C@@H](C2)N3C)cc1 [Compound I-073] |  | 100 to 5000 nM |  | 
